Measured values taken from ChEMBL document CHEMBL1151608, “Unusual cytotoxicities of 5-(acylethynyl)-1-(2-hydroxyethoxy)methyluracils” (Bioorg Med Chem Lett, 1996).
pIC50: −log10 of the molar value.

Experiments:
Assay type in all cases: functional, cell-based
HT-29 = assay: In vitro cytotoxic effect of compound was measured against HT-29 tumor cells.; conditions: Homo sapiens
CCRF-CEM = assay: In vitro cytotoxic effect of compound was measured against CCRF-CEM human lymphoblastoid cells.
L1210 = assay: In vitro cytotoxic effect of compound was measured against L1210/0 tumor cells in mouse

Cc1cccc(C(=O)C#Cc2cn(COCCO)c(=O)[nH]c2=O)c1
pIC50 (HT-29): 4.85 | pIC50 (CCRF-CEM): 6.22 | pIC50 (L1210): 6.15

COc1ccc(C(=O)C#Cc2cn(COCCO)c(=O)[nH]c2=O)cc1
pIC50 (HT-29): 4.70 | pIC50 (CCRF-CEM): 5.80 | pIC50 (L1210): 5.82

Cc1ccc(C(=O)C#Cc2cn(COCCO)c(=O)[nH]c2=O)cc1
pIC50 (HT-29): 5.10 | pIC50 (CCRF-CEM): 6.15 | pIC50 (L1210): 6.05

Cc1ccccc1C(=O)C#Cc1cn(COCCO)c(=O)[nH]c1=O
pIC50 (HT-29): 4.60 | pIC50 (CCRF-CEM): 6.05 | pIC50 (L1210): 5.66
